Reference: ChEMBL document CHEMBL5291721, “A preclinical secondary pharmacology resource illuminates target-adverse drug reaction associations of marketed drugs” (Nat Commun, 2023)

Columns and labels:
Bile salt export pump = Bile salt export pump (Homo sapiens, UniProt O95342); format: functional
[1] = molecular target: Voltage-gated inwardly rectifying potassium channel KCNH2 (Homo sapiens, UniProt Q12809); format: functional; conditions: read-out: AC50
Thromboxane A2 receptor = molecular target: T1, Thromboxane A2 receptor (Homo sapiens, UniProt P21731); format: functional, cell-based
T1 sequence (P21731 whole entry): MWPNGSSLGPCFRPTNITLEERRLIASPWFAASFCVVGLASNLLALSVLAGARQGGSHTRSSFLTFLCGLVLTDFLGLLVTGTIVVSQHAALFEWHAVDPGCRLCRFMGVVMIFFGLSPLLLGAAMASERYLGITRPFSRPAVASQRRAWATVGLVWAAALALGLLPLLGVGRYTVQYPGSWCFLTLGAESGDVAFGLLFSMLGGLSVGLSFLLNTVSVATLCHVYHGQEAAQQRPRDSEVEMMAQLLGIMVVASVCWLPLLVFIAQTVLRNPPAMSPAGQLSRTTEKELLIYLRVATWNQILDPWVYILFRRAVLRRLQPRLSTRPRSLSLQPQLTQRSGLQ

[2] = molecular target: T2, 5-hydroxytryptamine receptor 1A (Homo sapiens, UniProt P08908)
T2 sequence (P08908 whole entry): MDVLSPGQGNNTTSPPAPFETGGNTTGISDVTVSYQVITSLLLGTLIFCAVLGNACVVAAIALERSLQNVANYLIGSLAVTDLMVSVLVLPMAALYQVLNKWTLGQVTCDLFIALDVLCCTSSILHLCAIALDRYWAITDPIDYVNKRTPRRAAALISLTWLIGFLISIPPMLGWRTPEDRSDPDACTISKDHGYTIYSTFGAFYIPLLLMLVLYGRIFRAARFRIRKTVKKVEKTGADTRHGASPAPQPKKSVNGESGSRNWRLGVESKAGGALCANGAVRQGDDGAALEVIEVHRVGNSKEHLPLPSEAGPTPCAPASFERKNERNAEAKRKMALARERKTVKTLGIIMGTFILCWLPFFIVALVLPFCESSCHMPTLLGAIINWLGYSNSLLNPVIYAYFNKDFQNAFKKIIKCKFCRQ

[3] = molecular target: T3, Prostaglandin G/H synthase 1 (Homo sapiens, UniProt P23219); format: functional
[4] = molecular target: T4, Alpha-2A adrenergic receptor (Homo sapiens, UniProt P08913)
T4 sequence (P08913 whole entry): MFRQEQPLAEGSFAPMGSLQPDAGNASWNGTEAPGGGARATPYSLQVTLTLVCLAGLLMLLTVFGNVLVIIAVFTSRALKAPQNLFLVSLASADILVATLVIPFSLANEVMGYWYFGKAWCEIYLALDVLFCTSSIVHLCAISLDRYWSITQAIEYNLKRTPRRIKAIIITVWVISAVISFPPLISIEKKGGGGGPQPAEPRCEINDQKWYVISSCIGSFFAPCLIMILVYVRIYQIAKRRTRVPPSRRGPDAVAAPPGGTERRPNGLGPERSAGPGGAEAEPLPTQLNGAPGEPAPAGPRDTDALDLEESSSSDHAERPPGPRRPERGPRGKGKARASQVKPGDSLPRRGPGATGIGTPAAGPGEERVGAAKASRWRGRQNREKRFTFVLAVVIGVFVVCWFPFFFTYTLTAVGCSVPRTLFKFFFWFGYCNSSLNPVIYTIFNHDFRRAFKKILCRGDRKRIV

[5] = molecular target: T5, Muscarinic acetylcholine receptor M2 (Homo sapiens, UniProt P08172)
T5 sequence (P08172 whole entry): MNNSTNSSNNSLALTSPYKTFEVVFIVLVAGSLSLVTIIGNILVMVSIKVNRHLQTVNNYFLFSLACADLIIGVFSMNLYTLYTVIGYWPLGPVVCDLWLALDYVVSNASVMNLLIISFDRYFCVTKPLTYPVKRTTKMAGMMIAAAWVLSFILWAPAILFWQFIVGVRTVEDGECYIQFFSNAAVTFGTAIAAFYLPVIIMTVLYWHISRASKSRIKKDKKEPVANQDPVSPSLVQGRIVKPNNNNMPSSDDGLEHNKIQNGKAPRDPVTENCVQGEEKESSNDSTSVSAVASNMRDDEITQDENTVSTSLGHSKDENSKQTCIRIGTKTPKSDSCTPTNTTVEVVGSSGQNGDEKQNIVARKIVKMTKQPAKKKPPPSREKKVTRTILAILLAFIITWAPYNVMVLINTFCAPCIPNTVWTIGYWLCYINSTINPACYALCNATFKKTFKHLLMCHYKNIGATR

D(1A) dopamine receptor = D(1A) dopamine receptor (Homo sapiens, UniProt P21728)
Acetylcholinesterase = Acetylcholinesterase (Homo sapiens, UniProt P22303); format: functional
[6] = molecular target: Sodium-dependent dopamine transporter (Homo sapiens, UniProt Q01959)
Histamine H3 receptor = Histamine H3 receptor (Homo sapiens, UniProt Q9Y5N1)
D(3) dopamine receptor = D(3) dopamine receptor (Homo sapiens, UniProt P35462)
Prothrombin = Prothrombin (Homo sapiens, UniProt P00734); format: functional
[7] = molecular target: T3, Prostaglandin G/H synthase 1; format: functional; remark: listed apart in the source
[8] = molecular target: 3',5'-cyclic-AMP phosphodiesterase 4A (Homo sapiens, UniProt P27815); format: functional
[9] = molecular target: cGMP-inhibited 3',5'-cyclic phosphodiesterase 3A (Homo sapiens, UniProt Q14432); format: functional
Note: assay procedure not described here.

Sequence of Bile salt export pump (O95342 whole entry): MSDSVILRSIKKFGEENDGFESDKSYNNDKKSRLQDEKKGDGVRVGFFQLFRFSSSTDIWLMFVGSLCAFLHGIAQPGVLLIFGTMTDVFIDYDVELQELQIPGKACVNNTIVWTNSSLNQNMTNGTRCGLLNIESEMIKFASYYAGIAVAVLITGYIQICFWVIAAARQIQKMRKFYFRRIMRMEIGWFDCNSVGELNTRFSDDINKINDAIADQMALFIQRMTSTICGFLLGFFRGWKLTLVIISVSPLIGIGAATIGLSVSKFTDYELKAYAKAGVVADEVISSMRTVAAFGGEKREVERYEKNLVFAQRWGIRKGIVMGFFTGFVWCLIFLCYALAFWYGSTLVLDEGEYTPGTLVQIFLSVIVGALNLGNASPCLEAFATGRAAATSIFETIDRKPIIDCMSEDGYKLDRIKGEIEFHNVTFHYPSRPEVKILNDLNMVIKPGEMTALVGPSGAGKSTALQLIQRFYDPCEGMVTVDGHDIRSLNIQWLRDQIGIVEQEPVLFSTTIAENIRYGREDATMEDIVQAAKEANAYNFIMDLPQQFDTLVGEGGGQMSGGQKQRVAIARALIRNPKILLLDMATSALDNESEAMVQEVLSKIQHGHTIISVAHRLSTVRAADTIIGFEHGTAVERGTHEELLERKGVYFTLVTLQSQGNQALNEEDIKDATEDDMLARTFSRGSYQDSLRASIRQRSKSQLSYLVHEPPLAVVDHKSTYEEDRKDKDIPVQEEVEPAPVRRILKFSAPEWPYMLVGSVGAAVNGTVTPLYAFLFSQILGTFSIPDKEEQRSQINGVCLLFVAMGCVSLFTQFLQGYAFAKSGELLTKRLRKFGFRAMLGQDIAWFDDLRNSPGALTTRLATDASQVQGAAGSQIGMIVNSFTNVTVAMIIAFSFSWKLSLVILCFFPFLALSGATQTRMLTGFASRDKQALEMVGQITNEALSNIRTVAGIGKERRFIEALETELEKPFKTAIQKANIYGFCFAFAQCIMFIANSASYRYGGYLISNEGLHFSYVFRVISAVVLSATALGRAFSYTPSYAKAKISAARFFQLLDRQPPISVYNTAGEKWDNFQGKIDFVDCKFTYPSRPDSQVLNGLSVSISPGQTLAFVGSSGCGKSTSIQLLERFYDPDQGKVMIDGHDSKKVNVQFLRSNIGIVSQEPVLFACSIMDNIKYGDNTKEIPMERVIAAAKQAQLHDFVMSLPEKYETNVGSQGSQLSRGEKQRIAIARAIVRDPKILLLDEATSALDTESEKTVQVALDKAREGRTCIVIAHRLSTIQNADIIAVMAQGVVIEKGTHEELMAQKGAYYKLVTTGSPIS
Sequence of D(1A) dopamine receptor (P21728 whole entry): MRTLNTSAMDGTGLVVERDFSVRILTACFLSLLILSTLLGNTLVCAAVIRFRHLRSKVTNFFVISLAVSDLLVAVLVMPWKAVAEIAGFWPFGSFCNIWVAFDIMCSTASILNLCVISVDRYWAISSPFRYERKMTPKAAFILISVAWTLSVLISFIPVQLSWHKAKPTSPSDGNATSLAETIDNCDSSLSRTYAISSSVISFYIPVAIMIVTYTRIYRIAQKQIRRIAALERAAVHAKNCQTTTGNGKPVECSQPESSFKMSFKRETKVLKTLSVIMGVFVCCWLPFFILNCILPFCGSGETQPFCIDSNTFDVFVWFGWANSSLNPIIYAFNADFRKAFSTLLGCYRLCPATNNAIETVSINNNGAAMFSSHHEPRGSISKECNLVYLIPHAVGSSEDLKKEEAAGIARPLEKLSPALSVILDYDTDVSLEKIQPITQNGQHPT
Sequence of 3',5'-cyclic-AMP phosphodiesterase 4A (P27815 whole entry): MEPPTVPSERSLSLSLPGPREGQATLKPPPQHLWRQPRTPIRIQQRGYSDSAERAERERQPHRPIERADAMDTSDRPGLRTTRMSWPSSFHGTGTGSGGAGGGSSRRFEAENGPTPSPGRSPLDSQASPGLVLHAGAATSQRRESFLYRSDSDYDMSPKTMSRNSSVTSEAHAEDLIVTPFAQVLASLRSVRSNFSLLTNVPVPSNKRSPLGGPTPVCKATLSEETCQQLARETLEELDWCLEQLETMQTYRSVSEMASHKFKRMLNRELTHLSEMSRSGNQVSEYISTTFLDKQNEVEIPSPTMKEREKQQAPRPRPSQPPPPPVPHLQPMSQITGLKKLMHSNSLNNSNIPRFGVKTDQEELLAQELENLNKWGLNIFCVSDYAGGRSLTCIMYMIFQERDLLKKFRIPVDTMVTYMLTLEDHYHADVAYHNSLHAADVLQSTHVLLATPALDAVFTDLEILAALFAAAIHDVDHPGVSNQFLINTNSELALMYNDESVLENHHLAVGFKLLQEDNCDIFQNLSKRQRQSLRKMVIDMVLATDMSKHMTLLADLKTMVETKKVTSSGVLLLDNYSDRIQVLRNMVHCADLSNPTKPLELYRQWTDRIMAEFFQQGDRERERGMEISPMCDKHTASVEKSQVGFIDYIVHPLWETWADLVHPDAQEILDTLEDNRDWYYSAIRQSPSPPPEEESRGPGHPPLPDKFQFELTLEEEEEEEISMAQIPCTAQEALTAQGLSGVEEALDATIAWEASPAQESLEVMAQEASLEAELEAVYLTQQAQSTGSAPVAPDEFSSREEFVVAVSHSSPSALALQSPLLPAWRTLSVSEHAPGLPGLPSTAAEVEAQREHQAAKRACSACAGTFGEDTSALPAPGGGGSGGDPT
Sequence of D(3) dopamine receptor (P35462 whole entry): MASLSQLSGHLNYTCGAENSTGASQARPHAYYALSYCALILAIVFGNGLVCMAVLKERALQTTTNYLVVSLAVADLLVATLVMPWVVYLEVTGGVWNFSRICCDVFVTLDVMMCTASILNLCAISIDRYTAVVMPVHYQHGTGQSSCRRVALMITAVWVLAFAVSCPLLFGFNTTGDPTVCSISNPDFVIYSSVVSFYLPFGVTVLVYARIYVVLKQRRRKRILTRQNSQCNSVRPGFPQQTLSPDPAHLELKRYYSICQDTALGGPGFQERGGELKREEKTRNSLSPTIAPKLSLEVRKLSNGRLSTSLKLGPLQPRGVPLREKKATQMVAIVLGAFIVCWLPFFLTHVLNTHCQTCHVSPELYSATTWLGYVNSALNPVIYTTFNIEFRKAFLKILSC
Sequence of Acetylcholinesterase (P22303 whole entry): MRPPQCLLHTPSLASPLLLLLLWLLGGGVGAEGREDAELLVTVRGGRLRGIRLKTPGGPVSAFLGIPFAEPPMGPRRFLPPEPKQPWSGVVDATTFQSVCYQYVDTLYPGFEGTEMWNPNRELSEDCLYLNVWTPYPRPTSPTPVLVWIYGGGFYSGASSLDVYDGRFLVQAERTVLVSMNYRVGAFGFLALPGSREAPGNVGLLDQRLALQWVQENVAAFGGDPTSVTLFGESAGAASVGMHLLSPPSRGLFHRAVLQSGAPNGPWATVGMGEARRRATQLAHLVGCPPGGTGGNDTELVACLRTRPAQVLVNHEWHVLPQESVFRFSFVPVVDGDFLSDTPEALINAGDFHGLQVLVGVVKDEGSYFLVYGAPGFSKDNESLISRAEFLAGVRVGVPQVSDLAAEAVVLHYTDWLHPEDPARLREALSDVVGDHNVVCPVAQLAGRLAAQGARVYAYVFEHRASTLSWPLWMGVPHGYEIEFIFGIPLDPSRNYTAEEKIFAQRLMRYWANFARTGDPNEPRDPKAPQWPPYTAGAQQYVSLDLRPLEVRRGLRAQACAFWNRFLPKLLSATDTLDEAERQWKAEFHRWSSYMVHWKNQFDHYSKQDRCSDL
Sequence of Histamine H3 receptor (Q9Y5N1 whole entry): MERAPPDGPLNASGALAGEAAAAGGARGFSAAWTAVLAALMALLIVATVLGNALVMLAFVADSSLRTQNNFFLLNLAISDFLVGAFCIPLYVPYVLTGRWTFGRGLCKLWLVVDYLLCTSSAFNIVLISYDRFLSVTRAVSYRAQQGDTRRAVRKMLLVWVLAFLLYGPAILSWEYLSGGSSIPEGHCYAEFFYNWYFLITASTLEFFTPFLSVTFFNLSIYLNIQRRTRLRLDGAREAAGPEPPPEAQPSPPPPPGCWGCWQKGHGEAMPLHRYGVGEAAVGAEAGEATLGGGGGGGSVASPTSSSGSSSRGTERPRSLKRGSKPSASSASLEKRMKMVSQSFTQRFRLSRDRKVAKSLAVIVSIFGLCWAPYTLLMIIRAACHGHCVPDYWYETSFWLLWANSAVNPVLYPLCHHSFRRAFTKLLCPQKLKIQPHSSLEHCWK
T3 sequence (P23219 whole entry): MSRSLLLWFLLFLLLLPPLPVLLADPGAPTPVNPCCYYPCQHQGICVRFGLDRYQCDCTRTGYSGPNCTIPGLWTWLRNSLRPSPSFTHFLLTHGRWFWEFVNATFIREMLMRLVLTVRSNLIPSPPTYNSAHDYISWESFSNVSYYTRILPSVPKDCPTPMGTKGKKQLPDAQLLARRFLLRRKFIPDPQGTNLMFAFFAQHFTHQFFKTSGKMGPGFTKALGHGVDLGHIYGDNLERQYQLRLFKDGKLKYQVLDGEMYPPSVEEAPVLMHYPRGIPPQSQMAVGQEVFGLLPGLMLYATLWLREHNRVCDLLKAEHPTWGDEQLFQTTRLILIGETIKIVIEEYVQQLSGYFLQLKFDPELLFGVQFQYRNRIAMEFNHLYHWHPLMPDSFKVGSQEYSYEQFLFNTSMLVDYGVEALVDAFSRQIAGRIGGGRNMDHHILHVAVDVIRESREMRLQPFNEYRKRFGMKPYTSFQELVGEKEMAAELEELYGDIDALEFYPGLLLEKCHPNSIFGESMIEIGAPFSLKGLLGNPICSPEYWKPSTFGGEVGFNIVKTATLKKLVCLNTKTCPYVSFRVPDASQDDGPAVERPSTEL

CNCCC=C1c2ccccc2CCc2ccccc21 [NORTRIPTYLINE]
AC50 (Bile salt export pump): > 300 µM | AC50 [1]: 2.59 µM

COc1ccnc(C[S+]([O-])c2nc3ccc(OC(F)F)cc3[nH]2)c1OC (centres undefined) [PANTOPRAZOLE]
AC50 (Bile salt export pump): 190 µM | AC50 [1]: > 30 µM

COc1ccc(Cc2nccc3cc(OC)c(OC)cc23)cc1OC [PAPAVERINE]
AC50 (Bile salt export pump): 46 µM | AC50 [1]: 5.6 µM

O=C1NC(=O)C(c2ccccc2)(c2ccccc2)N1 [PHENYTOIN]
AC50 (Bile salt export pump): > 300 µM

CC(C)C[C@H](CN)CC(=O)O [PREGABALIN]
AC50 (Bile salt export pump): > 300 µM | AC50 [1]: > 30 µM

CCOc1cc(CC(=O)N[C@@H](CC(C)C)c2ccccc2N2CCCCC2)ccc1C(=O)O [REPAGLINIDE]
AC50 (Bile salt export pump): 9.33 µM | AC50 [1]: > 30 µM

NC(=O)c1ncn([C@@H]2O[C@H](CO)[C@@H](O)[C@H]2O)n1 [RIBAVIRIN]
AC50 (Bile salt export pump): > 300 µM | AC50 [1]: > 30 µM

O=C(Nc1c(Cl)cncc1Cl)c1ccc(OC(F)F)c(OCC2CC2)c1 [ROFLUMILAST]
AC50 (Bile salt export pump): 4 µM | AC50 [1]: > 30 µM

CCCN(CCC)CCc1cccc2c1CC(=O)N2 [ROPINIROLE]
AC50 (Bile salt export pump): > 300 µM

CCCN(CCc1cccs1)[C@H]1CCc2c(O)cccc2C1 [ROTIGOTINE]
AC50 (Bile salt export pump): 260 µM | AC50 [1]: 3.8 µM

CC[C@H]1OC(=O)[C@H](C)[C@@H](O[C@H]2C[C@@](C)(OC)[C@@H](O)[C@H](C)O2)[C@H](C)[C@@H](O[C@@H]2O[C@H](C)C[C@H](N(C)C)[C@H]2O)[C@](C)(O)C[C@@H](C)/C(=N\OCOCCOC)[C@H](C)[C@@H](O)[C@]1(C)O [ROXITHROMYCIN]
AC50 (Bile salt export pump): > 300 µM | AC50 [1]: > 30 µM

CC(C)N(CCCCOCC(=O)NS(C)(=O)=O)c1cnc(-c2ccccc2)c(-c2ccccc2)n1 [SELEXIPAG]
AC50 (Bile salt export pump): 5.7 µM | AC50 [1]: > 30 µM

CC(=O)S[C@@H]1CC2=CC(=O)CC[C@]2(C)[C@H]2CC[C@@]3(C)[C@@H](CC[C@@]34CCC(=O)O4)[C@H]12 [SPIRONOLACTONE]
AC50 (Bile salt export pump): 26 µM | AC50 [1]: > 30 µM

Cn1c(=O)c2[nH]cnc2n(C)c1=O [THEOPHYLLINE]
AC50 (Thromboxane A2 receptor): > 30 µM | AC50 (Bile salt export pump): > 300 µM | AC50 [2]: > 30 µM | AC50 [3]: > 30 µM | AC50 [4]: > 30 µM | AC50 [5]: > 30 µM | AC50 (D(1A) dopamine receptor): > 30 µM | AC50 (Acetylcholinesterase): > 30 µM | AC50 [1]: > 30 µM | AC50 [6]: > 30 µM | AC50 (Histamine H3 receptor): > 30 µM | AC50 (D(3) dopamine receptor): > 30 µM | AC50 (Prothrombin): > 30 µM | AC50 [7]: > 30 µM

CN1CCN(CCCN2c3ccccc3Sc3ccc(S(=O)(=O)N(C)C)cc32)CC1 [THIOPROPERAZINE]
AC50 (Thromboxane A2 receptor): > 30 µM | AC50 [2]: 6.09 µM | AC50 [3]: 23.6 µM | AC50 [4]: 1.42 µM | AC50 [5]: 2.66 µM | AC50 (D(1A) dopamine receptor): 0.13 µM | AC50 (Acetylcholinesterase): 29 µM | AC50 [1]: 0.4 µM | AC50 [6]: 13.3 µM | AC50 (Histamine H3 receptor): 13.7 µM | AC50 (D(3) dopamine receptor): 0.003 µM | AC50 (Prothrombin): > 30 µM | AC50 [8]: > 30 µM | AC50 [9]: > 30 µM | AC50 [7]: > 30 µM

NCCc1ccc(O)cc1 [TYRAMINE]
AC50 (Thromboxane A2 receptor): > 30 µM | AC50 (Bile salt export pump): > 300 µM | AC50 [2]: 7.88 µM | AC50 [3]: > 3 µM | AC50 [4]: 22 µM | AC50 [5]: > 30 µM | AC50 (Acetylcholinesterase): > 30 µM | AC50 [1]: > 30 µM | AC50 [6]: > 30 µM | AC50 (Histamine H3 receptor): > 30 µM | AC50 (Prothrombin): > 30 µM | AC50 [8]: > 30 µM | AC50 [9]: > 30 µM | AC50 [7]: > 30 µM

CCCCCCCCCCCCCCCC(=O)OC/C=C(C)/C=C/C=C(C)/C=C/C1=C(C)CCCC1(C)C [VITAMIN A PALMITATE]
AC50 (Thromboxane A2 receptor): > 30 µM | AC50 [2]: > 30 µM | AC50 [3]: > 30 µM | AC50 [4]: > 30 µM | AC50 [5]: > 30 µM | AC50 (D(1A) dopamine receptor): > 30 µM | AC50 (Acetylcholinesterase): > 30 µM | AC50 [1]: > 30 µM | AC50 [6]: > 30 µM | AC50 (Histamine H3 receptor): > 30 µM | AC50 (D(3) dopamine receptor): > 30 µM | AC50 (Prothrombin): > 30 µM | AC50 [8]: > 30 µM | AC50 [9]: > 30 µM | AC50 [7]: > 30 µM

Cc1cc(CC(=O)O)n(C)c1C(=O)c1ccc(Cl)cc1 [ZOMEPIRAC]
AC50 (Bile salt export pump): 72 µM | AC50 [1]: > 30 µM
